Experimental data published in patent US10010614B2, “Derivatives of GLP-1 like peptides, and uses thereof” (Novo Nordisk A/S, priority 2013, dated 2018).
Numbered stars: 1 amine (or outer) side, 2 acyl side, 3 side chain; on linkers, the order of the positions; unused ones are H or OH. Square brackets hold non-standard residues; d marks the D form. Side chains are listed from the residue outwards. Peptide text beside a SMILES is read from it. * marks the point of attachment. X1 = O=C(O)CCCCCCCCCCCCCCCCCCC(=O)NCC1CCC(C(=O)*)CC1; C20 diacid = O=C(O)CCCCCCCCCCCCCCCCCCC(=O)*; γGlu = O=C(O)[C@H](CCC(=O)[*:2])N[*:1]; εLys = N[C@@H](CCCCN[*:1])C(=O)[*:2]; Trx = NC[C@H]1CC[C@H](C(=O)O)CC1; AEEA = NCCOCCOCC(=O)O; Aib = CC(C)(N)C(=O)O

Experiments:
[1] = biological target: T1, human GLP-1 receptor (Homo sapiens, UniProt P43220); assay: In vitro potency, CRE luciferase reporter gene assay in BHK cells expressing the human GLP-1 receptor; assay type: cell-based; conditions: whole cell reporter gene assay, 3 h incubation, no HSA, averages of at least two replicates
T1 construct: expressed in transfected cells; host or cells: membranes prepared from BHK cells (parent line BHKTS13), clone FCW467-12A
In short: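 Stably transfected BHK cells (5×10^3/well) expressing human GLP-1R with a CRE-luciferase reporter; compounds diluted in buffer with 2% ovalbumin and 0.2% Pluronic F-68, final 1×10^−7 to 1×10^−14 M. Incubated 3 h at 37 °C, 5% CO2, then luminescence read; potency from non-linear log(agonist)–response fit, mean of ≥2 replicates.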

[2] = biological target: T1, human GLP-1 receptor; assay: GLP-1 receptor binding, competitive binding assay (125I-GLP-1, SPA) on isolated membranes;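 further: test compounds added at a range of concentrations to membranes from cells expressing the human GLP-1 receptor, scored by displacement of labelled ligand, read with WGA SPA beads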
[3] = Pharmacokinetic study in minipigs (i.v.); assay type: in vivo; conditions: male, Göttingen, minipig, plasma, iv; read-out: Terminal half-live (converted)
Protocol: The purpose of this study is to determine the protraction in vivo of the GLP-1 derivatives after i.v. administration to minipigs, i.e. the prolongation of their time in the body and thereby their time of action. This is done in a pharmacokinetic (PK) study, where the terminal half-life of the derivative in question is determined. By terminal half-life is meant the time it takes to halve a certain plasma concentration in the terminal elimination phase.
The derivatives of Examples 1-5 were dosed with 2 nmol/kg, the derivative of Example 6 was dosed with 5 nmol/kg, and the derivatives of Examples 7-9 were dosed with 15 nmol/kg.
Male Göttingen minipigs were obtained from Ellegaard Göttingen Minipigs (Dalmose, Denmark) approximately 7-14 months of age and weighing approximately 16-35 kg were used in the studies. The minipigs were housed either individually (pigs with permanent catheters) or in a group and fed restrictedly once or twice daily with SDS minipig diet (Special Diets Services, Essex, UK).
After at least 2 weeks of acclimatisation two permanent central venous catheters were implanted in vena cava caudalis or cranialis in each animal. The animals were allowed 1 week recovery after the surgery, and were then used for repeated pharmacokinetic studies with a suitable wash-out period between successive GLP-1 derivative dosings.
The GLP-1 derivatives were dissolved in 50 mM sodium phosphate, 70-145 mM sodium chloride, 0.05% tween 80, pH 7.4 to a concentration of usually from 20-60 nmol/ml.
Intravenous injections (the volume corresponding to for example 0.050-0.125 ml/kg) of the compounds were given through one catheter or through the venflon, and blood was sampled at predefined time points for up till 25 days post dosing (preferably through the other catheter or by venipuncture). Blood samples (for example 0.8 ml) were collected in EDTA buffer (8 mM) and then centrifuged at 4° C. and 1942G for 10 minutes.
Plasma was pipetted into Micronic tubes on dry ice, and kept at −20° C. until analysed for plasma concentration of the respective GLP-1 compound using LOCI. Individual plasma concentration-time profiles were analyzed by a non-compartmental pharmacokinetic method in Phoenix v. 6.2 (Pharsight Inc., Mountain View, Calif., USA), or other relevant software for PK analysis, and the resulting terminal half-lives (harmonic mean) determined.

T1 sequence (P43220 24-463): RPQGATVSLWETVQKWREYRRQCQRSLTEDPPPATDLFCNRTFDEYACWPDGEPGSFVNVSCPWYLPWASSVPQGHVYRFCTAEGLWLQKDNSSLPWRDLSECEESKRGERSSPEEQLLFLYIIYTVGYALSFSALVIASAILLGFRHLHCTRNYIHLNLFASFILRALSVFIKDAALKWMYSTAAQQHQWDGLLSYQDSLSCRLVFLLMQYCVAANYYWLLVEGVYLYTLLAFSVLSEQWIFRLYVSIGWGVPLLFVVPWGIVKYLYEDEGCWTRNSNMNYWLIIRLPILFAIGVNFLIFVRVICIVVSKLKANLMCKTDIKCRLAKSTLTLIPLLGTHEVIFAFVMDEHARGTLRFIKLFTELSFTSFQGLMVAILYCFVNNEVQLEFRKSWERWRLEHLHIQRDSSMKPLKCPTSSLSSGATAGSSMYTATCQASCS

`CC[C@H](C)[C@H](NC(=O)[C@H](Cc1ccccc1)NC(=O)[C@H](CCC(=O)O)NC(=O)[C@H](CCCNC(=N)N)NC(=O)[C@H](C)NC(=O)[C@H](C)NC(=O)[C@H](CCC(N)=O)NC(=O)[C@H](CCC(=O)O)NC(=O)[C@H](CCC(=O)O)NC(=O)[C@H](CC(C)C)NC(=O)[C@H](Cc1ccc(O)cc1)NC(=O)[C@H](CO)NC(=O)[C@H](CO)NC(=O)[C@@H](NC(=O)[C@H](CC(=O)O)NC(=O)[C@H](CO)NC(=O)[C@@H](NC(=O)[C@H](Cc1ccccc1)NC(=O)[C@@H](NC(=O)CNC(=O)[C@H](CCC(=O)O)NC(=O)C(C)(C)NC(=O)[C@@H](N)Cc1c[nH]cn1)[C@@H](C)O)[C@@H](C)O)C(C)C)C(=O)N[C@@H](C)C(=O)N[C@@H](CCCCNC(=O)COCCOCCNC(=O)COCCOCCNC(=O)CC[C@H](NC(=O)[C@H]1CC[C@H](CNC(=O)CCCCCCCCCCCCCCCCCCC(=O)O)CC1)C(=O)O)C(=O)N[C@@H](CC(C)C)C(=O)N[C@H](C(=O)N[C@@H](CCCNC(=N)N)C(=O)NCC(=O)N[C@@H](CCCNC(=N)N)C(=O)NCC(=O)NCC(=O)NCC(=O)NCC(=O)N[C@@H](CO)C(=O)N[C@@H](CCCCNC(=O)COCCOCCNC(=O)COCCOCCNC(=O)CC[C@H](NC(=O)[C@H]1CC[C@H](CNC(=O)CCCCCCCCCCCCCCCCCCC(=O)O)CC1)C(=O)O)C(=O)O)C(C)C` [Example 2] (H-H[Aib]EGTFTSDVSSYLEEQAAREFIAK([AEEA-AEEA-γGlu-Trx-C20 diacid])LVRGRGGGGSK([AEEA-AEEA-γGlu-Trx-C20 diacid])-OH) showed an EC50 [1] of 0.036 nM, an IC50 ([2]; High HSA IC50 (nM), high serum albumin (2.0% HSA final assay concentration)) of at least 1000 nM and an IC50 ([2]; Low HSA IC50 (nM), low serum albumin (max. 0.001% final assay concentration)) of 1.4 nM. The half-life [3] was 110 h.

In the case of `CC[C@H](C)[C@H](NC(=O)[C@H](Cc1ccccc1)NC(=O)[C@H](CCCCNC(=O)COCCOCCNC(=O)COCCOCCNC(=O)CC[C@H](NC(=O)C1CCC(CNC(=O)CCCCCCCCCCCCCCCCCCC(=O)O)CC1)C(=O)O)NC(=O)[C@H](CCCNC(=N)N)NC(=O)[C@H](C)NC(=O)[C@H](C)NC(=O)[C@H](CCC(N)=O)NC(=O)[C@H](CCC(=O)O)NC(=O)[C@H](CCC(=O)O)NC(=O)[C@H](CC(C)C)NC(=O)[C@H](Cc1ccc(O)cc1)NC(=O)[C@H](CO)NC(=O)[C@H](CO)NC(=O)[C@@H](NC(=O)[C@H](CC(=O)O)NC(=O)[C@H](CO)NC(=O)[C@@H](NC(=O)[C@H](Cc1ccccc1)NC(=O)[C@@H](NC(=O)CNC(=O)[C@H](CCC(=O)O)NC(=O)C(C)(C)NC(=O)[C@@H](N)Cc1c[nH]cn1)[C@@H](C)O)[C@@H](C)O)C(C)C)C(=O)N[C@@H](C)C(=O)N[C@@H](Cc1c[nH]c2ccccc12)C(=O)N[C@@H](CC(C)C)C(=O)N[C@H](C(=O)N[C@@H](CCCNC(=N)N)C(=O)NCC(=O)N[C@@H](CCCNC(=N)N)C(=O)NCC(=O)NCC(=O)NCC(=O)NCC(=O)N[C@@H](CO)C(=O)N[C@@H](CCCCNC(=O)COCCOCCNC(=O)COCCOCCNC(=O)CC[C@H](NC(=O)C1CCC(CNC(=O)CCCCCCCCCCCCCCCCCCC(=O)O)CC1)C(=O)O)C(=O)O)C(C)C` (some centres unmarked) [Example 1] (H-H[Aib]EGTFTSDVSSYLEEQAARK([AEEA-AEEA-γGlu-X1])FIAWLVRGRGGGGSK([AEEA-AEEA-γGlu-X1])-OH; N-terminus and C-terminus assumed), the half-life [3] is reported as 121 h.

Molecule `CC[C@H](C)[C@H](NC(=O)[C@H](Cc1ccccc1)NC(=O)[C@H](CCC(=O)O)NC(=O)[C@H](CCCNC(=N)N)NC(=O)[C@H](C)NC(=O)[C@H](C)NC(=O)[C@H](CCCCNC(=O)COCCOCCNC(=O)COCCOCCNC(=O)CC[C@H](NC(=O)C1CCC(CNC(=O)CCCCCCCCCCCCCCCCCCC(=O)O)CC1)C(=O)O)NC(=O)[C@H](CCC(=O)O)NC(=O)[C@H](CCC(=O)O)NC(=O)[C@H](CC(C)C)NC(=O)[C@H](Cc1ccc(O)cc1)NC(=O)[C@H](CO)NC(=O)[C@H](CO)NC(=O)[C@@H](NC(=O)[C@H](CC(=O)O)NC(=O)[C@H](CO)NC(=O)[C@@H](NC(=O)[C@H](Cc1ccccc1)NC(=O)[C@@H](NC(=O)CNC(=O)[C@H](CCC(=O)O)NC(=O)C(C)(C)NC(=O)[C@@H](N)Cc1c[nH]cn1)[C@@H](C)O)[C@@H](C)O)C(C)C)C(=O)N[C@@H](C)C(=O)N[C@@H](Cc1c[nH]c2ccccc12)C(=O)N[C@@H](CC(C)C)C(=O)N[C@H](C(=O)N[C@@H](CCCNC(=N)N)C(=O)NCC(=O)N[C@@H](CCCNC(=N)N)C(=O)NCC(=O)NCC(=O)NCC(=O)NCC(=O)N[C@@H](CO)C(=O)N[C@@H](CCCCNC(=O)COCCOCCNC(=O)COCCOCCNC(=O)CC[C@H](NC(=O)C1CCC(CNC(=O)CCCCCCCCCCCCCCCCCCC(=O)O)CC1)C(=O)O)C(=O)O)C(C)C` (some centres unmarked) [Example 4] (H-H[Aib]EGTFTSDVSSYLEEK([AEEA-AEEA-γGlu-X1])AAREFIAWLVRGRGGGGSK([AEEA-AEEA-γGlu-X1])-OH; N-terminus and C-terminus assumed) has a half-life [3] of 137 h.

Molecule `CC[C@H](C)[C@H](NC(=O)[C@H](Cc1ccccc1)NC(=O)[C@H](CCC(=O)O)NC(=O)[C@H](CCCNC(=N)N)NC(=O)[C@H](C)NC(=O)[C@H](C)NC(=O)[C@H](CCC(N)=O)NC(=O)[C@H](CCC(=O)O)NC(=O)[C@H](CCC(=O)O)NC(=O)[C@H](CC(C)C)NC(=O)[C@H](Cc1ccc(O)cc1)NC(=O)[C@H](CO)NC(=O)[C@H](CO)NC(=O)[C@@H](NC(=O)[C@H](CC(=O)O)NC(=O)[C@H](CO)NC(=O)[C@@H](NC(=O)[C@H](Cc1ccccc1)NC(=O)[C@@H](NC(=O)CNC(=O)[C@H](CCC(=O)O)NC(=O)C(C)(C)NC(=O)[C@@H](N)Cc1c[nH]cn1)[C@@H](C)O)[C@@H](C)O)C(C)C)C(=O)N[C@@H](C)C(=O)N[C@@H](Cc1c[nH]c2ccccc12)C(=O)N[C@@H](CC(C)C)C(=O)N[C@H](C(=O)N[C@@H](CCCNC(=N)N)C(=O)NCC(=O)N[C@@H](CCCNC(=N)N)C(=O)NCC(=O)N[C@@H](CCCCNC(=O)[C@@H](N)CCCCNC(=O)[C@@H](N)CCCCNC(=O)CC[C@H](NC(=O)[C@H]1CC[C@H](CNC(=O)CCCCCCCCCCCCCCCCCCC(=O)O)CC1)C(=O)O)C(=O)NCC(=O)NCC(=O)N[C@@H](CO)C(=O)N[C@@H](CCCCNC(=O)[C@@H](N)CCCCNC(=O)[C@@H](N)CCCCNC(=O)CC[C@H](NC(=O)[C@H]1CC[C@H](CNC(=O)CCCCCCCCCCCCCCCCCCC(=O)O)CC1)C(=O)O)C(=O)O)C(C)C` [Example 7] (H-H[Aib]EGTFTSDVSSYLEEQAAREFIAWLVRGRGK([εLys-εLys-γGlu-Trx-C20 diacid])GGSK([εLys-εLys-γGlu-Trx-C20 diacid])-OH) has a half-life [3] of 106 h.

With `CC[C@H](C)[C@H](NC(=O)[C@H](Cc1ccccc1)NC(=O)[C@H](CCC(=O)O)NC(=O)[C@H](CCCNC(=N)N)NC(=O)[C@H](C)NC(=O)[C@H](C)NC(=O)[C@H](CCC(N)=O)NC(=O)[C@H](CCC(=O)O)NC(=O)[C@H](CCC(=O)O)NC(=O)[C@H](CC(C)C)NC(=O)[C@H](Cc1ccc(O)cc1)NC(=O)[C@H](CO)NC(=O)[C@H](CO)NC(=O)[C@@H](NC(=O)[C@H](CC(=O)O)NC(=O)[C@H](CO)NC(=O)[C@@H](NC(=O)[C@H](Cc1ccccc1)NC(=O)[C@@H](NC(=O)CNC(=O)[C@H](CCC(=O)O)NC(=O)C(C)(C)NC(=O)[C@@H](N)Cc1c[nH]cn1)[C@@H](C)O)[C@@H](C)O)C(C)C)C(=O)N[C@@H](C)C(=O)N[C@@H](Cc1c[nH]c2ccccc12)C(=O)N[C@@H](CC(C)C)C(=O)N[C@H](C(=O)N[C@@H](CCCNC(=N)N)C(=O)NCC(=O)N[C@@H](CCCCNC(=O)COCCOCCNC(=O)COCCOCCNC(=O)CC[C@H](NC(=O)C1CCC(CNC(=O)CCCCCCCCCCCCCCCCCCC(=O)O)CC1)C(=O)O)C(=O)NCC(=O)NCC(=O)NCC(=O)NCC(=O)N[C@@H](CO)C(=O)N[C@@H](CCCCNC(=O)COCCOCCNC(=O)COCCOCCNC(=O)CC[C@H](NC(=O)C1CCC(CNC(=O)CCCCCCCCCCCCCCCCCCC(=O)O)CC1)C(=O)O)C(=O)O)C(C)C` (some centres unmarked) [Example 5] (H-H[Aib]EGTFTSDVSSYLEEQAAREFIAWLVRGK([AEEA-AEEA-γGlu-X1])GGGGSK([AEEA-AEEA-γGlu-X1])-OH; N-terminus and C-terminus assumed) the half-life [3] was 131 h.
